Test results: ChEMBL document CHEMBL1149521, “Synthesis of novel keto-ACE analogues as domain-selective angiotensin I-converting enzyme inhibitors” (Bioorg Med Chem Lett, 2006)

Assays:
[1] = Selectivity for rabbit testis ACE C domain over human ACE N domain
[2] = target: Angiotensin-converting enzyme (Homo sapiens, UniProt P12821); test: Inhibition of recombinant ACE N domain
[3] = target: T1, Angiotensin-converting enzyme (Oryctolagus cuniculus, UniProt P12822); test: Inhibition of rabbit testis recombinant ACE C domain
T1 sequence (P12822 whole entry): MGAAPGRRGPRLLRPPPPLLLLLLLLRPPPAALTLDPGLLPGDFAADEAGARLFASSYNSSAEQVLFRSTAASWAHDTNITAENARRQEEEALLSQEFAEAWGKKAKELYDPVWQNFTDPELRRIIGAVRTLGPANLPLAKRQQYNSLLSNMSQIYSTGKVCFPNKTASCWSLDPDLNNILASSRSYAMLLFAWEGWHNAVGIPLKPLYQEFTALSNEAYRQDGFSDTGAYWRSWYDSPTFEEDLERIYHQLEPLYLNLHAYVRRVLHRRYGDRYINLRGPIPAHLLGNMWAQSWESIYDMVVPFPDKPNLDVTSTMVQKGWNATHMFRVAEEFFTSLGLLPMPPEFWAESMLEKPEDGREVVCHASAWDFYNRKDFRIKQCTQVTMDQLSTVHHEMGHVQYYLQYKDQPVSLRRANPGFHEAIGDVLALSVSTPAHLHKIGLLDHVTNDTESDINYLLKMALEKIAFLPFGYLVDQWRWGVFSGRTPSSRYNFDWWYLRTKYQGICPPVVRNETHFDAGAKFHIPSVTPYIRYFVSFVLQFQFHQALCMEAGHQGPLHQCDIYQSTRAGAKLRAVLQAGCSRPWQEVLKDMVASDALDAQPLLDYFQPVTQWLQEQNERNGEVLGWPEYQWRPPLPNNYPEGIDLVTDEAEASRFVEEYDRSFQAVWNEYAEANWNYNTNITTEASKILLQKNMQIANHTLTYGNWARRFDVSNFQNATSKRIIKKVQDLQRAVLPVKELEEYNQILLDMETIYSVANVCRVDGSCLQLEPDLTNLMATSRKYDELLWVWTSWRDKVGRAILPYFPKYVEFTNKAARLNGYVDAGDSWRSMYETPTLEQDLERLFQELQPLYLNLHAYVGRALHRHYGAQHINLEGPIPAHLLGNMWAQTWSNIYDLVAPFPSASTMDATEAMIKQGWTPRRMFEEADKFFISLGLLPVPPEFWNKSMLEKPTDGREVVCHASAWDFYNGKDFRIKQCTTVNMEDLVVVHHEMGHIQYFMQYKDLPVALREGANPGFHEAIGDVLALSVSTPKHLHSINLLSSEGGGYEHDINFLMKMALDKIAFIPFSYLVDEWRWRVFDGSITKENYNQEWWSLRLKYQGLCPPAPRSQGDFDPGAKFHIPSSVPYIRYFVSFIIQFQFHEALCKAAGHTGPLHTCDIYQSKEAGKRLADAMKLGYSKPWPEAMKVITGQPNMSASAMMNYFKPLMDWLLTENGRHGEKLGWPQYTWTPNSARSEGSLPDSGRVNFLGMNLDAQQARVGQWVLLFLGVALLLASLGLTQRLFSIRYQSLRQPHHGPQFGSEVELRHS

Chain of Angiotensin-converting enzyme (Homo sapiens, UniProt P12821) (P12821 whole entry): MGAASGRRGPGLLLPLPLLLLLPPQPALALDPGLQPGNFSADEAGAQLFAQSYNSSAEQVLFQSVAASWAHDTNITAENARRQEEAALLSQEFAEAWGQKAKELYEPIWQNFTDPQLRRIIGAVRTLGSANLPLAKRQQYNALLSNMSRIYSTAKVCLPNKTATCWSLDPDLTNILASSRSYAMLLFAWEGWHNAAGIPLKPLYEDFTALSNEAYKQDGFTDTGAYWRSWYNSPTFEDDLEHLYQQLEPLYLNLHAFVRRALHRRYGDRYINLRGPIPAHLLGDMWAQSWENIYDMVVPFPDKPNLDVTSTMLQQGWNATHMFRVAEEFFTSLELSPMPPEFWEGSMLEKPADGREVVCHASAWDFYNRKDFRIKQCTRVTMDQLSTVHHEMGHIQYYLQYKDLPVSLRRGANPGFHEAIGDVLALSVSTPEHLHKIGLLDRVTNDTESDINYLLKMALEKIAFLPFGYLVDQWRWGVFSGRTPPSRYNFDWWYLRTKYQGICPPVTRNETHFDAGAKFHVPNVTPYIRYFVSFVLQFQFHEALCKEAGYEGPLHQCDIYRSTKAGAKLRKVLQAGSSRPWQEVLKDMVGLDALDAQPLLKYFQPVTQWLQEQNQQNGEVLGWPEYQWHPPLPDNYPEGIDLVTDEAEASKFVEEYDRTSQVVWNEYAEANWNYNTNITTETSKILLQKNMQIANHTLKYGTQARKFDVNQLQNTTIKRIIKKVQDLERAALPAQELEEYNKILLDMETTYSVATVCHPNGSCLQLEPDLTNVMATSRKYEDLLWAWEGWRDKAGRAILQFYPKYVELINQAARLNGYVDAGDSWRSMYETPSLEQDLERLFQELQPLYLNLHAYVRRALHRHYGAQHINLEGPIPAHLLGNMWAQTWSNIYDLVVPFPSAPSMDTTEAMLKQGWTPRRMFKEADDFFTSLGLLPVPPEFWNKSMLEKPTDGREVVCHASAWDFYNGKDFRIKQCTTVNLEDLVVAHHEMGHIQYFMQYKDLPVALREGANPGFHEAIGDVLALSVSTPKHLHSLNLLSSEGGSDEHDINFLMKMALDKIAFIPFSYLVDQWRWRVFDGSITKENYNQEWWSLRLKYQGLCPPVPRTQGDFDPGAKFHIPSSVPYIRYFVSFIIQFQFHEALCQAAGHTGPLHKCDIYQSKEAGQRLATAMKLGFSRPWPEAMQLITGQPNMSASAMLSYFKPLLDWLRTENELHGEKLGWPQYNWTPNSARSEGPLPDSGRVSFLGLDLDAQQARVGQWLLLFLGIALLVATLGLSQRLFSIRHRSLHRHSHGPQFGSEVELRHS

Row | Structure (SMILES) | Ratio Ki [1] | Ki [2] [µM] | Ki [3] [µM]
1 | CC(C)(C)OC(=O)N[C@@H](Cc1ccccc1)C(=O)CCC(=O)N[C@@H](Cc1c[nH]c2ccccc12)C(=O)O | 0.04 | 13.3 | 381
2 | NCCCC[C@H](N[C@@H](CCc1ccccc1)C(=O)O)C(=O)N1CCC[C@H]1C(=O)O [LISINOPRIL ANHYDROUS] |  |  | 0.051
3 | CC(C)(C)OC(=O)N[C@@H](Cc1ccccc1)C(=O)CCC(=O)N1CCC[C@H]1C(=O)O | 0.2 |  | 144
4 | CC(C)(C)OC(=O)N[C@@H](Cc1ccccc1)C(=O)CCC(=O)N[C@@H](Cc1ccccc1)C(=O)O | 0.1 | 43 | 313

The remaining compounds from weak to strong by Ki [3], led by results:

Row | Ratio Ki [1] | Ki [2] [µM] | Ki [3] [µM] | Structure (SMILES)
5 | 3.6 |  | 23.7 | O=C(CCC(=O)[C@H](Cc1ccccc1)NC(=O)c1ccccc1)N[C@@H](Cc1ccccc1)C(=O)O
6 | 245 |  | 0.8 | O=C(CCC(=O)[C@H](Cc1ccccc1)NC(=O)c1ccccc1)N[C@@H](Cc1c[nH]c2ccccc12)C(=O)O
